The target in the assay is T1, human CTPS1 (Homo sapiens, UniProt P17812).
T1 construct: FLAG (with GG linker); His8 (with GG linker); purchased Proteros biostructures GmbH
T1 sequence (P17812 1-591): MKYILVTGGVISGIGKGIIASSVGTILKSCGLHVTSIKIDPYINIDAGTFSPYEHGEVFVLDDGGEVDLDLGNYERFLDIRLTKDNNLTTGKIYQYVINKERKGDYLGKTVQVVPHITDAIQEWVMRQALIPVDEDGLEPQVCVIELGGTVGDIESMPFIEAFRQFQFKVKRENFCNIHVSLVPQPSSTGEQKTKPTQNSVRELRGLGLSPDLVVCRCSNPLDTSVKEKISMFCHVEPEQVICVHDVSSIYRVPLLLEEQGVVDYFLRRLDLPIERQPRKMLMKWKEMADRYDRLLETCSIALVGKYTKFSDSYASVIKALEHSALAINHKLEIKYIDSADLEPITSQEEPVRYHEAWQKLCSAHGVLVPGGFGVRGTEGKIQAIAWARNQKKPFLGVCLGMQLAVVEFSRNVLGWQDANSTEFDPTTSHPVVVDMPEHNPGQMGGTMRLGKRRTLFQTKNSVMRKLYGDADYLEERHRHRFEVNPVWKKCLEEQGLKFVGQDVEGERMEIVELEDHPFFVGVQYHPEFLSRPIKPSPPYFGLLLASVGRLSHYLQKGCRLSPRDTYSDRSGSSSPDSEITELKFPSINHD
Put plainly: Human CTPS1 enzyme inhibition, ADP-Glo Max assay. It is filed as biochemical. In outline: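 Enzyme preincubated with compound for 10 min at 25 °C in 50 mM Tris pH 8.0, 10 mM MgCl2, 0.01% Tween-20, 2 mM L-cysteine. ATP-to-ADP conversion detected by ADP-Glo Max luminescence after 60 min depletion and 60 min development steps. Percentage inhibition calculated per concentration.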

The mark [1] stands for this setting: ADP-Glo Max assay, Table 10, read-out: Human CTPS1 Enzyme Inhibition, IC50 grouped by potency range (CTPS1).

Read-outs that look alike come from different tables or passages of the source.

Regarding `CN(C(=O)C(C)(C)c1csc(NS(=O)(=O)C2CC2)n1)c1ccc(-c2cccnc2)cc1` [T164, 2-(2-(cyclopropanesulfonamido)thiazol-4-yl)-N,2-dimethyl-N-(4-(pyridin-3-yl)phenyl)propanamide], the IC50 under setting [1] was in the range of 1 to 10 µM. For the compound `CC(C)(C(=O)Nc1ccc(-c2cncc(C(F)(F)F)n2)cc1)c1csc(NS(=O)(=O)C2(C)CC2)n1` [T302, 2-methyl-2-(2-((1-methylcyclopropane)-1-sulfonamido)thiazol-4-yl)-N-(4-(6-(trifluoromethyl)pyrazin-2-yl)phenyl)propanamide], under setting [1], the IC50 lay in the range of 0.1 to 1 µM. Same read-out and setting: to `CCOc1cncc(-c2ccc(NC(=O)C(N)c3csc(NS(=O)(=O)C4CC4)n3)cc2)n1` (centres unmarked) [T325, 2-Amino-2-(2-(cyclopropanesulfonamido)thiazol-4-yl)-N-(4-(6-ethoxypyrazin-2-yl)phenyl)acetamide] belongs less than 0.1 µM; to `CC(C)(C(=O)Nc1ccc(-c2cncc(C(F)(F)F)n2)cc1F)c1csc(NS(=O)(=O)CC2CC2)n1` [T430, 2-(2-((cyclopropylmethyl)sulfonamido)thiazol-4-yl)-N-(2-fluoro-4-(6-(trifluoromethyl)pyrazin-2-yl)phenyl)-2-methylpropanamide], 0.1 to 1 µM. Consider `CC(C)(C(=O)Nc1ccc(-c2cncc(Cl)n2)cc1)c1csc(NS(=O)(=O)C2CC2)n1` [T155, N-(4-(6-chloropyrazin-2-yl)phenyl)-2-(2-(cyclopropanesulfonamido)thiazol-4-yl)-2-methylpropanamide], for which, under setting [1], the IC50 was less than 0.1 µM.

For `Cc1cc(-c2cncc(C#N)c2)cc(C)c1NC(=O)C(C)(C)c1csc(NS(=O)(=O)C2CC2)n1` [T320, N-(4-(5-cyanopyridin-3-yl)-2,6-dimethylphenyl)-2-(2-(cyclopropanesulfonamido)thiazol-4-yl)-2-methylpropanamide], the IC50 under setting [1] was in the range of 0.1 to 1 µM.

Take `COc1cc(NC(=O)C(C)(C)c2csc(NS(=O)(=O)C3CC3)n2)ccc1-c1cccnc1` [T150, 2-(2-(cyclopropanesulfonamido)thiazol-4-yl)-N-(3-methoxy-4-(pyridin-3-yl)phenyl)-2-methylpropanamide]: the IC50 under setting [1] lay within 0.1 to 1 µM. In the case of `CCC(CC)(C(=O)Nc1ccc(-c2cccnc2)cn1)c1csc(NS(=O)(=O)C2CC2)n1` [T144, N-([3,3′-bipyridin]-6-yl)-2-(2-(cyclopropanesulfonamido)thiazol-4-yl)-2-ethylbutanamide], the IC50 under setting [1] lay in the range of 0.1 to 1 µM. As to `CC(C)(C(=O)Nc1ccc(-c2ccccc2)nc1)c1csc(NS(=O)(=O)C2CC2)n1` [T239, 2-(2-(cyclopropanesulfonamido)thiazol-4-yl)-2-methyl-N-(6-phenylpyridin-3-yl)propanamide], the IC50 under setting [1] fell in the range of 0.1 to 1 µM. As to `CC(C)(C(=O)Nc1ncc(-c2cncc(F)c2)cc1F)c1csc(NS(=O)(=O)C2CC2)n1` [T230, 2-(2-(cyclopropanesulfonamido)thiazol-4-yl)-N-(5,5′-difluoro-[3,3′-bipyridin]-6-yl)-2-methylpropanamide], the IC50 under setting [1] was less than 0.1 µM.

`CC(C)(C(=O)Nc1ccc(-c2cncc(OCC(F)(F)F)n2)cc1F)c1csc(NS(=O)(=O)C2CC2)n1` [T131, 2-(2-(cyclopropanesulfonamido)thiazol-4-yl)-N-(2-fluoro-4-(6-(2,2,2-trifluoroethoxy)pyrazin-2-yl)phenyl)-2-methylpropanamide]: the IC50 under setting [1] is less than 0.1 µM. Take `COc1nccc(C)c1-c1ccc(NC(=O)C(C)(C)c2csc(NS(=O)(=O)C3CC3)n2)cc1` [T250, 2-(2-(cyclopropanesulfonamido)thiazol-4-yl)-N-(4-(2-methoxy-4-methylpyridin-3-yl)phenyl)-2-methylpropanamide]: the IC50 under setting [1] fell in the range of 1 to 10 µM. As for `CC(C)(C(=O)Nc1ncc(-c2cncc(Cl)c2)cc1F)c1csc(NS(=O)(=O)C2CC2)n1` [T229, N-(5′-chloro-5-fluoro-[3,3′-bipyridin]-6-yl)-2-(2-(cyclopropanesulfonamido)thiazol-4-yl)-2-methylpropanamide], the IC50 under setting [1] was less than 0.1 µM. Same read-out and setting: to `CC(C)(C(=O)Nc1ncc(-c2cncc(C(F)(F)F)n2)cc1F)c1csc(NS(=O)(=O)C2CC2)n1` [T112, 2-(2-(cyclopropanesulfonamido)thiazol-4-yl)-N-(3-fluoro-5-(6-(trifluoromethyl)pyrazin-2-yl)pyridin-2-yl)-2-methylpropanamide] belongs less than 0.1 µM; to `Cc1cncc(-c2ccc(NC(=O)C(C)(C)c3csc(NS(=O)(=O)C4CC4)n3)nc2)n1` [T464, 2-(2-(cyclopropanesulfonamido)thiazol-4-yl)-2-methyl-N-(5-(6-methylpyrazin-2-yl)pyridin-2-yl)propanamide], less than 0.1 µM; to `O=C(Cc1csc(NS(=O)(=O)C2CC2)n1)Nc1ccc(-c2cncnc2)nc1` [T23, 2-(2-(cyclopropanesulfonamido)thiazol-4-yl)-N-(6-(pyrimidin-5-yl)pyridin-3-yl)acetamide], 0.1 to 1 µM. Same read-out and setting: to `CN(C(=O)C(C)(C)c1csc(NS(=O)(=O)C2CC2)n1)c1ccc(-c2cncc(C(F)(F)F)n2)cc1` [T310, 2-(2-(cyclopropanesulfonamido)thiazol-4-yl)-N,2-dimethyl-N-(4-(6-(trifluoromethyl)pyrazin-2-yl)phenyl)propanamide] belongs 1 to 10 µM. For the compound `CCC(CC)(C(=O)Nc1ccc(-c2cncc(C(F)(F)F)n2)cn1)c1csc(NS(=O)(=O)C2CC2)n1` [T147, 2-(2-(cyclopropanesulfonamido)thiazol-4-yl)-2-ethyl-N-(5-(6-(trifluoromethyl)pyrazin-2-yl)pyridin-2-yl)butanamide], the IC50 under setting [1] was less than 0.1 µM. Consider `CC(C)CS(=O)(=O)Nc1nc(C(C)(C)C(=O)Nc2ccc(-c3cncc(C(F)(F)F)n3)cc2)cs1` [T313, 2-methyl-2-(2-((2-methylpropyl)sulfonamido)thiazol-4-yl)-N-(4-(6-(trifluoromethyl)pyrazin-2-yl)phenyl)propanamide], for which the IC50 under setting [1] lay in the range of 0.1 to 1 µM.

Turning to `CC(C)(C(=O)Nc1ccc(-c2cncc(CO)n2)cc1)c1csc(NS(=O)(=O)C2CC2)n1` [T283, 2-(2-(cyclopropanesulfonamido)thiazol-4-yl)-N-(4-(6-(hydroxymethyl)pyrazin-2-yl)phenyl)-2-methylpropanamide], the IC50 under setting [1] is 0.1 to 1 µM. As for `COC(C(=O)Nc1ccc(-c2cncc(C(F)(F)F)n2)cc1F)c1csc(NS(=O)(=O)C2CC2)n1` (single isomer, unassigned) [T458, 2-(2-(cyclopropanesulfonamido)thiazol-4-yl)-N-(2-fluoro-4-(6-(trifluoromethyl)pyrazin-2-yl)phenyl)-2-methoxyacetamide], under setting [1], the IC50 is less than 0.1 µM.

For `COc1cncc(-c2ccc(NC(=O)C(C)(C)c3csc(NS(=O)(=O)C4CC4)n3)c(F)c2)n1` [T275, 2-(2-(cyclopropanesulfonamido)thiazol-4-yl)-N-(2-fluoro-4-(6-methoxypyrazin-2-yl)phenyl)-2-methylpropanamide], under setting [1], the IC50 was less than 0.1 µM.

Regarding `COc1cc(NC(=O)C(C)(C)c2csc(NS(=O)(=O)C3CC3)n2)ccc1-c1cnccn1` [T43, 2-(2-(cyclopropanesulfonamido)thiazol-4-yl)-N-(3-methoxy-4-(pyrazin-2-yl)phenyl)-2-methylpropanamide], the IC50 under setting [1] was 0.1 to 1 µM. For `CC(C)(C(=O)Nc1ccc(-c2cncc(CO)c2)cc1)c1csc(NS(=O)(=O)C2CC2)n1` [T241, 2-(2-(cyclopropanesulfonamido)thiazol-4-yl)-N-(4-(5-(hydroxymethyl)pyridin-3-yl)phenyl)-2-methylpropanamide], the IC50 under setting [1] is 0.1 to 1 µM. For `COc1cncc(-c2ccc(NC(=O)C(C)(C)c3csc(NS(=O)(=O)C4CC4)n3)c(OC)c2)c1` [T50, 2-(2-(cyclopropanesulfonamido)thiazol-4-yl)-N-(2-methoxy-4-(5-methoxypyridin-3-yl)phenyl)-2-methylpropanamide], the IC50 under setting [1] was less than 0.1 µM.

`CCOc1cncc(-c2ccc(NC(=O)C3(c4ccnc(NS(=O)(=O)CC)n4)CCN(C(=O)COC)CC3)nc2)n1` [P296]: where the note is “Table 12, ADP-Glo Max assay, read-out: CTPS1 (Human CTPS1 Enzyme Inhibition data grouped by potency range)”, the IC50 was less than 0.1 µM. Take `COc1ccccc1-c1ccc(NC(=O)Cc2csc(NS(=O)(=O)C3CC3)n2)cc1` [T246, 2-(2-(cyclopropanesulfonamido)thiazol-4-yl)-N-(2′-methoxy-[1,1′-biphenyl]-4-yl)acetamide]: under setting [1], the IC50 is 0.1 to 1 µM. Take `COc1cncc(-c2ccc(NC(=O)C(OC)c3csc(NS(=O)(=O)C4CC4)n3)cc2)n1` (single isomer, unassigned) [T107, 2-(2-(cyclopropanesulfonamido)thiazol-4-yl)-2-methoxy-N-(4-(6-methoxypyrazin-2-yl)phenyl)acetamide]: the IC50 under setting [1] was less than 0.1 µM. Turning to `Cc1ncc(-c2ccc(NC(=O)C(C)(C)c3csc(NS(=O)(=O)C4CC4)n3)cc2)nc1C` [T282, 2-(2-(cyclopropanesulfonamido)thiazol-4-yl)-N-(4-(5,6-dimethylpyrazin-2-yl)phenyl)-2-methylpropanamide], the IC50 under setting [1] lay in the range of 0.1 to 1 µM.
